# Experimental data from article PMC7358406, “Molecular and Biochemical Characterization of Salt-Tolerant Trehalose-6-Phosphate Hydrolases Identified by Screening and Sequencing Salt-Tolerant Clones From the Metagenomic Library of the Gastrointestinal Tract” (Frontiers in Microbiology, 2020).
# What was measured:
# [1] = test system: T1, rTRE_P2 (TRE_P2), trehalose-6-phosphate hydrolase; test: p-nitrophenol release, A410, initial rates; type: biochemical, Staphylococcus warneri; conditions: 50 mM HEPES-NaOH pH 7.5 and 100 mM NaCl (standard assay), 30°C; pNPG 0.5-10 mM
# T1 construct: full length without signal peptide, gene 1638 bp
# [2] = test system: T2, rTRE_P3 (TRE_P3), trehalose-6-phosphate hydrolase; test: p-nitrophenol release, A410, initial rates; type: biochemical, Staphylococcus warneri; conditions: 50 mM HEPES-NaOH pH 7.5 and 100 mM NaCl (standard assay), 30°C; pNPG 0.5-10 mM
# T2 construct: full length without signal peptide, gene 1644 bp
smiles,measurement,setting,value
O=[N+]([O-])c1ccc(O[C@H]2O[C@H](CO)[C@@H](O)[C@H](O)[C@H]2O)cc1 [p-nitrophenyl-α-D-glucopyranoside],Km,[1],15.6 mM
same,Km,[2],12.5 mM
